Test results as given in ChEMBL document CHEMBL4229333, “Effects of rigidity on the selectivity of protein kinase inhibitors” (Eur J Med Chem, 2018).

Columns and labels:
[1] = target: Calcium/calmodulin-dependent protein kinase type II subunit delta (Homo sapiens) (UniProt Q13557); assay: Inhibition of CAMK2D (unknown origin) at 1 uM by mobility shift microfluidics platform based assay relative to control
Homo sapiens = organism: Homo sapiens; assay: Inhibition of CDK/Cyclin E (unknown origin) at 1 uM by mobility shift microfluidics platform based assay relative to control
[2] = target: Cyclin-dependent kinase 5/CDK5 activator 1 (Homo sapiens) (UniProt Q00535+Q15078); assay: Inhibition of CDK5-p25 (unknown origin) at 1 uM by mobility shift microfluidics platform based assay relative to control; assay type: protein-complex assay
[3] = target: Dual specificity protein kinase CLK1 (Homo sapiens) (UniProt P49759); assay: Inhibition of CLK1 (unknown origin) at 1 uM by mobility shift microfluidics platform based assay relative to control
Chain of Dual specificity protein kinase CLK1 (Homo sapiens) (P49759 whole entry, looked up, the tested form may be a part): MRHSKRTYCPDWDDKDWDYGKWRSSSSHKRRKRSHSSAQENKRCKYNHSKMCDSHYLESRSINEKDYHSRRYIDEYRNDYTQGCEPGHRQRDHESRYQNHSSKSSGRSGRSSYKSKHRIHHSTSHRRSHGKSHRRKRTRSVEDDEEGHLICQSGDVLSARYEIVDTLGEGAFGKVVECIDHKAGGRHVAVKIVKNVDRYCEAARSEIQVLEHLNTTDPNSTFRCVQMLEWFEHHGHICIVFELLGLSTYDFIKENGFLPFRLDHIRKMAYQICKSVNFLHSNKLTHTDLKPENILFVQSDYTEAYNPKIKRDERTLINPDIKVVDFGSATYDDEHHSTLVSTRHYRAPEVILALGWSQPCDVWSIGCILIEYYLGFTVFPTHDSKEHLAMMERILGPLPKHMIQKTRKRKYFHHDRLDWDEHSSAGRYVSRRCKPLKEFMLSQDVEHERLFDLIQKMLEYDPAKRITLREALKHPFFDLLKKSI

[4] = target: Discoidin domain-containing receptor 2 (Homo sapiens) (UniProt Q16832); assay: Inhibition of DDR2 (unknown origin) at 1 uM by mobility shift microfluidics platform based assay relative to control
[5] = target: Dual specificity tyrosine-phosphorylation-regulated kinase 3 (Homo sapiens) (UniProt O43781); assay: Inhibition of DYRK3 (unknown origin) at 1 uM by mobility shift microfluidics platform based assay relative to control
Chain of Dual specificity tyrosine-phosphorylation-regulated kinase 3 (Homo sapiens) (O43781 whole entry): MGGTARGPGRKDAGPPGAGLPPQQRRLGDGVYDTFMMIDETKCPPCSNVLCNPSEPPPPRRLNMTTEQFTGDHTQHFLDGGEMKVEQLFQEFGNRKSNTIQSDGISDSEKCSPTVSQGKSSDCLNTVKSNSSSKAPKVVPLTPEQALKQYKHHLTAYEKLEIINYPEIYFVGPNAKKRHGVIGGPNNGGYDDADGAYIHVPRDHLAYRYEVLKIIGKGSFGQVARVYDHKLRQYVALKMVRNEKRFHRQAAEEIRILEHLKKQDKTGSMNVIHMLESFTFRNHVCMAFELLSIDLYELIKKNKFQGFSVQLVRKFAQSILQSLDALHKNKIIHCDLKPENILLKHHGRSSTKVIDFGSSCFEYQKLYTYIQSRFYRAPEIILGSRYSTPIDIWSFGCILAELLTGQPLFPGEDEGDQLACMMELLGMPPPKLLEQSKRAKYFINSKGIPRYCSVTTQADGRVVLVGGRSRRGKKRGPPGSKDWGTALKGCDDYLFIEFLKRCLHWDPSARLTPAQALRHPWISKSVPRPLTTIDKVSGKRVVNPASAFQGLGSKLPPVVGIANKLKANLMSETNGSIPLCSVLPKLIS

[6] = target: Ephrin type-A receptor 3 (Homo sapiens) (UniProt P29320); assay: Inhibition of EPH-A3 (unknown origin) at 1 uM by mobility shift microfluidics platform based assay relative to control
[7] = target: Ephrin type-B receptor 4 (Homo sapiens) (UniProt P54760); assay: Inhibition of EPH-B4 (unknown origin) at 1 uM by mobility shift microfluidics platform based assay relative to control
[8] = target: Tyrosine-protein kinase Fyn (Homo sapiens) (UniProt P06241); assay: Inhibition of FYN (unknown origin) at 1 uM by mobility shift microfluidics platform based assay relative to control
Chain of Tyrosine-protein kinase Fyn (Homo sapiens) (P06241 2-537 limits assumed): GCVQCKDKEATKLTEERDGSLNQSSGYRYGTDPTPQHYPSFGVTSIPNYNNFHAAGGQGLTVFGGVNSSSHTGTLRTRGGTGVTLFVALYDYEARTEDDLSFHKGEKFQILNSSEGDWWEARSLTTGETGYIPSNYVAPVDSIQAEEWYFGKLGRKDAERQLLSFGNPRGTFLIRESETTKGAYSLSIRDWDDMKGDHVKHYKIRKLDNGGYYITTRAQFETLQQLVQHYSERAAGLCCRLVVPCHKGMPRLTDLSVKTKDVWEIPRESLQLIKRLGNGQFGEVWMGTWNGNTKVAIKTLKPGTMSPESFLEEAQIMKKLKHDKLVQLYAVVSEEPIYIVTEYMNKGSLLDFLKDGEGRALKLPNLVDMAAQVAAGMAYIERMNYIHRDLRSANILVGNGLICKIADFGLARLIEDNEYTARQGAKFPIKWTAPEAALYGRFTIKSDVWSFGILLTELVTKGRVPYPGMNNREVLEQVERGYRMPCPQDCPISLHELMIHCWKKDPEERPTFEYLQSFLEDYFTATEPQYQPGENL

[9] = target: Homeodomain-interacting protein kinase 4 (Homo sapiens) (UniProt Q8NE63); assay: Inhibition of HIPK4 (unknown origin) at 1 uM by mobility shift microfluidics platform based assay relative to control
[10] = test system: Leucine-rich repeat serine/threonine-protein kinase 2 (Homo sapiens), Q5S007 [G2019S]; assay: Inhibition of LRRK2 G2019S mutant (unknown origin) at 1 uM by mobility shift microfluidics platform based assay relative to control
[11] = target: Maternal embryonic leucine zipper kinase (Homo sapiens) (UniProt Q14680); assay: Inhibition of MELK (unknown origin) at 1 uM by mobility shift microfluidics platform based assay relative to control
[12] = target: Hepatocyte growth factor receptor (Homo sapiens) (UniProt P08581); assay: Inhibition of MET (unknown origin) at 1 uM by mobility shift microfluidics platform based assay relative to control
[13] = target: MAP kinase-interacting serine/threonine-protein kinase 1 (Homo sapiens) (UniProt Q9BUB5); assay: Inhibition of MKNK1 (unknown origin) at 1 uM by mobility shift microfluidics platform based assay relative to control
[14] = target: Serine/threonine-protein kinase 26 (Homo sapiens) (UniProt Q9P289); assay: Inhibition of MST4 (unknown origin) at 1 uM by mobility shift microfluidics platform based assay relative to control
[15] = target: Mitogen-activated protein kinase 14 (Homo sapiens) (UniProt Q16539); assay: Inhibition of P38-alpha (unknown origin) at 1 uM by mobility shift microfluidics platform based assay relative to control
[16] = target: Serine/threonine-protein kinase PAK 3 (Homo sapiens) (UniProt O75914); assay: Inhibition of PAK3 (unknown origin) at 1 uM by mobility shift microfluidics platform based assay relative to control
[17] = target: Serine/threonine-protein kinase PAK 4 (Homo sapiens) (UniProt O96013); assay: Inhibition of PAK4 (unknown origin) at 1 uM by mobility shift microfluidics platform based assay relative to control
Chain of Serine/threonine-protein kinase PAK 4 (Homo sapiens) (O96013 whole entry, looked up): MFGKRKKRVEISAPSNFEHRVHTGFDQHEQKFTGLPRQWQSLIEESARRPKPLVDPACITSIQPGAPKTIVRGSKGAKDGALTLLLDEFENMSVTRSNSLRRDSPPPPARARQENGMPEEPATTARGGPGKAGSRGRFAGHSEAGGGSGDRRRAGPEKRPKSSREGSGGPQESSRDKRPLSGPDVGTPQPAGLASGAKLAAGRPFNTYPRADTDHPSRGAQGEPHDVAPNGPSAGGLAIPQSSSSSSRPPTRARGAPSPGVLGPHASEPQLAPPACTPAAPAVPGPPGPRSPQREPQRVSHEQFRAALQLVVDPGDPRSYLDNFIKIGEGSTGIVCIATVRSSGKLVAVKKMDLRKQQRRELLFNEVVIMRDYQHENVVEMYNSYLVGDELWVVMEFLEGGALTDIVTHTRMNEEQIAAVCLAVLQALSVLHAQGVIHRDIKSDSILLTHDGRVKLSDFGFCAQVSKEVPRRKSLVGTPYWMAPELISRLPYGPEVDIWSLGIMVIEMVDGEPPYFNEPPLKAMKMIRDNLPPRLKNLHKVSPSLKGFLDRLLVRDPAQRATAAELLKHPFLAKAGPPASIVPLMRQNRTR

[18] = target: Platelet-derived growth factor receptor alpha (Homo sapiens) (UniProt P16234); assay: Inhibition of PDGFR-alpha (unknown origin) at 1 uM by mobility shift microfluidics platform based assay relative to control
Chain of Platelet-derived growth factor receptor alpha (Homo sapiens) (P16234 whole entry, canonical isoform): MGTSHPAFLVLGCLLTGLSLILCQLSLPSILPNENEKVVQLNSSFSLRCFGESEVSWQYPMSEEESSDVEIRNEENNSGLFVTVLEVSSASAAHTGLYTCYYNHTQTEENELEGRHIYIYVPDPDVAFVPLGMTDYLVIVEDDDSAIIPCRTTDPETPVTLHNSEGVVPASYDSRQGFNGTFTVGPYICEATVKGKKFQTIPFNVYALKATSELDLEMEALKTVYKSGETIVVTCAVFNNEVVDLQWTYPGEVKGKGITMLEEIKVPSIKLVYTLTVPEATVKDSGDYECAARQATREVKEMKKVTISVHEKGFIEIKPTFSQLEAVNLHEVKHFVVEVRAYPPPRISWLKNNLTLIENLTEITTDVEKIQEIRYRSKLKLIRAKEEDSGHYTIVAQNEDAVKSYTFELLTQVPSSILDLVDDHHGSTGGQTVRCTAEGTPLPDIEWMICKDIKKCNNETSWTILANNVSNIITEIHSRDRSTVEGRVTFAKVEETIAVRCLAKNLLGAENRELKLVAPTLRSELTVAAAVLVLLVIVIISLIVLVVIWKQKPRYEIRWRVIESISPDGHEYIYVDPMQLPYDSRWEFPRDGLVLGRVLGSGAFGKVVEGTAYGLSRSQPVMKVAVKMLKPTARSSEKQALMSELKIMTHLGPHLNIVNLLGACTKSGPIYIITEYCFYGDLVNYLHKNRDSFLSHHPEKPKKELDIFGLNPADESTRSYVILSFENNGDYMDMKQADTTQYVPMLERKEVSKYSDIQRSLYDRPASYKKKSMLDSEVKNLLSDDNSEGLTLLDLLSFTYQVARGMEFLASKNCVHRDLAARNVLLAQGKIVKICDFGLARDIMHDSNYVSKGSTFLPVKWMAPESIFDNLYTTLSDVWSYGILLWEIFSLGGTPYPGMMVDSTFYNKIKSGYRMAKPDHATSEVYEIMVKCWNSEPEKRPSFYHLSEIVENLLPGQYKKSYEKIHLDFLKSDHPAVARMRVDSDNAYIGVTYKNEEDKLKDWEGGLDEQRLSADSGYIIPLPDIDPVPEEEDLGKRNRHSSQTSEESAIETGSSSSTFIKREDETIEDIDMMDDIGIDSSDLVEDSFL

[19] = target: Phosphorylase b kinase gamma catalytic chain, skeletal muscle/heart isoform (Homo sapiens) (UniProt Q16816); assay: Inhibition of PHK-gamma1 (unknown origin) at 1 uM by mobility shift microfluidics platform based assay relative to control
[20] = target: Phosphatidylinositol 4,5-bisphosphate 3-kinase catalytic subunit alpha isoform (Homo sapiens) (UniProt P42336); assay: Inhibition of PI3K-alpha (unknown origin) at 1 uM by mobility shift microfluidics platform based assay relative to control
Chain of Phosphatidylinositol 4,5-bisphosphate 3-kinase catalytic subunit alpha isoform (Homo sapiens) (P42336 whole entry, canonical isoform): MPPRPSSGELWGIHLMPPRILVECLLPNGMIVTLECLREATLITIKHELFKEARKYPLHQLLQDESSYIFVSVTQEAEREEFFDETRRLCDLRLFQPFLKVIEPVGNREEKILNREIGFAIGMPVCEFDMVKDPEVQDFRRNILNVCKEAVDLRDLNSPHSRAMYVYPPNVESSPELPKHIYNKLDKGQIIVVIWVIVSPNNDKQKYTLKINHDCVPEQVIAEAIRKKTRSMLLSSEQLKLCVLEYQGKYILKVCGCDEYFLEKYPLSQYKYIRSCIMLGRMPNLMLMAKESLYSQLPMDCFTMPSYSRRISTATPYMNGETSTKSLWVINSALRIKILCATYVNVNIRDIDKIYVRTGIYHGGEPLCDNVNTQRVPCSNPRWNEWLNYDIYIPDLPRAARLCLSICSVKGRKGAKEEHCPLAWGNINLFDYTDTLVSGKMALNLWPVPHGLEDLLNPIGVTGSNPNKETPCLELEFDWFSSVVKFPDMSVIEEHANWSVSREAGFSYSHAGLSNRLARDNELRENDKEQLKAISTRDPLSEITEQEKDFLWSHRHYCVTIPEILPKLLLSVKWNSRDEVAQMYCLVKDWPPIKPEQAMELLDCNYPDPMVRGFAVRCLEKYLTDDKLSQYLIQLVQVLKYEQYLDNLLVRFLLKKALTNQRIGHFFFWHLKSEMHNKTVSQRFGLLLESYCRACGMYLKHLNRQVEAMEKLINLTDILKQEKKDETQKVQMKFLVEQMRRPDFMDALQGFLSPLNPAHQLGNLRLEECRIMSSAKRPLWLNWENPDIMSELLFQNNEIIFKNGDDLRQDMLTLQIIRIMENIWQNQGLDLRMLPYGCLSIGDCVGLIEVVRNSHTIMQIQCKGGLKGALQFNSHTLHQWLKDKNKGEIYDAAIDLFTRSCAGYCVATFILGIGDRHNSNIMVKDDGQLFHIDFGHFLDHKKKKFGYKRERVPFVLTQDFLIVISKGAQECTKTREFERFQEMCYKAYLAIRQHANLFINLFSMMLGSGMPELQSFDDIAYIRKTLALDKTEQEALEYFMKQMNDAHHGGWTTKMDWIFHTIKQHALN

[21] = target: Protein kinase C alpha type (Homo sapiens) (UniProt P17252); assay: Inhibition of PKC-alpha (unknown origin) at 1 uM by mobility shift microfluidics platform based assay relative to control
[22] = target: Serine/threonine-protein kinase N1 (Homo sapiens) (UniProt Q16512); assay: Inhibition of PKN1 (unknown origin) at 1 uM by mobility shift microfluidics platform based assay relative to control
[23] = target: Serine/threonine-protein kinase PLK1 (Homo sapiens) (UniProt P53350); assay: Inhibition of PLK1 (unknown origin) at 1 uM by mobility shift microfluidics platform based assay relative to control
[24] = target: Tyrosine-protein kinase FRK (Homo sapiens) (UniProt P42685); assay: Inhibition of PTK5 (unknown origin) at 1 uM by mobility shift microfluidics platform based assay relative to control
[25] = target: Protein-tyrosine kinase 2-beta (Homo sapiens) (UniProt Q14289); assay: Inhibition of PYK2 (unknown origin) at 1 uM by mobility shift microfluidics platform based assay relative to control
[26] = target: Rho-associated protein kinase 2 (Homo sapiens) (UniProt O75116); assay: Inhibition of ROCK2 (unknown origin) at 1 uM by mobility shift microfluidics platform based assay relative to control
[27] = target: Serine/threonine-protein kinase Sgk2 (Homo sapiens) (UniProt Q9HBY8); assay: Inhibition of SGK2 (unknown origin) at 1 uM by mobility shift microfluidics platform based assay relative to control
[28] = target: Proto-oncogene tyrosine-protein kinase Src (Homo sapiens) (UniProt P12931); assay: Inhibition of SRC (unknown origin) at 1 uM by mobility shift microfluidics platform based assay relative to control
Chain of Proto-oncogene tyrosine-protein kinase Src (Homo sapiens) (P12931 2-536 limits assumed): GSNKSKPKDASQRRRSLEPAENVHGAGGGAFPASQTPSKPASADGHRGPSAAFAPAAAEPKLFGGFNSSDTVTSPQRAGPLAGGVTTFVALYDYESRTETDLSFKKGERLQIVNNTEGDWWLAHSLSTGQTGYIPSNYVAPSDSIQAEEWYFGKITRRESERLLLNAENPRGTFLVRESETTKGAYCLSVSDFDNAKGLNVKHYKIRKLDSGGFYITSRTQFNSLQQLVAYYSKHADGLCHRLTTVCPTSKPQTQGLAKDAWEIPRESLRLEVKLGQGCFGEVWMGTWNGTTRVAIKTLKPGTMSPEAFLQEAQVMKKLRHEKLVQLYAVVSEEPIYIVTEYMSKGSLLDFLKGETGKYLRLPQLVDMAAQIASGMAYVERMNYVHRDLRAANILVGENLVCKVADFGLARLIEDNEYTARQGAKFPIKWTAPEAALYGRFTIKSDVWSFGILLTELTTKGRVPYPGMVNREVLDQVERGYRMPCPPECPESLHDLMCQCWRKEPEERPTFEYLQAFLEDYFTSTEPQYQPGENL

[29] = target: Serine/threonine-protein kinase TBK1 (Homo sapiens) (UniProt Q9UHD2); assay: Inhibition of TBK1 (unknown origin) at 1 uM by mobility shift microfluidics platform based assay relative to control
[30] = target: Angiopoietin-1 receptor (Homo sapiens) (UniProt Q02763); assay: Inhibition of TIE2 (unknown origin) at 1 uM by mobility shift microfluidics platform based assay relative to control
[31] = target: TRAF2 and NCK-interacting protein kinase (Homo sapiens) (UniProt Q9UKE5); assay: Inhibition of TNIK (unknown origin) at 1 uM by mobility shift microfluidics platform based assay relative to control
[32] = target: Non-receptor tyrosine-protein kinase TNK1 (Homo sapiens) (UniProt Q13470); assay: Inhibition of TNK1 (unknown origin) at 1 uM by mobility shift microfluidics platform based assay relative to control
[33] = target: Testis-specific serine/threonine-protein kinase 2 (Homo sapiens) (UniProt Q96PF2); assay: Inhibition of TSSK2 (unknown origin) at 1 uM by mobility shift microfluidics platform based assay relative to control

Row | SMILES | inhibition [1] [%] | inhibition (Homo sapiens) [%] | inhibition [2] [%] | inhibition [3] [%] | inhibition [4] [%] | inhibition [5] [%] | inhibition [6] [%] | inhibition [7] [%] | inhibition [8] [%] | inhibition [9] [%] | inhibition [10] [%] | inhibition [11] [%] | inhibition [12] [%] | inhibition [13] [%] | inhibition [14] [%] | inhibition [15] [%] | inhibition [16] [%] | inhibition [17] [%] | inhibition [18] [%] | inhibition [19] [%] | other results
1 | CC(C)n1nc(C#Cc2cccc(NC(=O)c3cccc(C(F)(F)F)c3)c2)c2c(N)ncnc21 | -1 | 1 to 3 | 2 | 2 | 93 | 7 | 98 | 97 | 101 | 29 | 36 | -3 | 8 | 0 | 9 | 70 | 2 | 0 | 100 | -3 | inhibition [20]: 36%; inhibition [21]: -7%; inhibition [22]: -2%; inhibition [23]: 1%; inhibition [24]: 95%; inhibition [25]: 74%; inhibition [26]: 18%; inhibition [27]: 0%; inhibition [28]: 100%; inhibition [29]: 6%; inhibition [30]: 96%; inhibition [31]: 71%; inhibition [32]: 84%; inhibition [33]: -10%
2 | CC(C)n1nc(C#Cc2cccc3cc(-c4cccc(C(F)(F)F)c4)ncc23)c2c(N)ncnc21 | 0 | -1 to 3 | 2 | -1 | 96 | 1 | 76 | 80 | 85 | 9 | 3 | 2 | -1 | 2 | -1 | 15 | 1 | 2 | 94 | 10 | inhibition [20]: -8%; inhibition [21]: 2%; inhibition [22]: 6%; inhibition [23]: 1%; inhibition [24]: 18%; inhibition [25]: 1%; inhibition [26]: 4%; inhibition [27]: -2%; inhibition [28]: 80%; inhibition [29]: 1%; inhibition [30]: 61%; inhibition [31]: 4%; inhibition [32]: 19%; inhibition [33]: 1%
